In ChEMBL document CHEMBL5634150, “Design, synthesis and biological evaluation of novel dihydroquinolin-4(1H)-one derivatives as novel tubulin polymerization inhibitors” (Eur J Med Chem, 2023):
In brackets after ≈: the same amount, converted by molar mass. Activity calls are given as the source filed them. The calls are words filed in the database; no cut-off is given here.

What was measured:
K562 [1] = assay: Induction of cell cycle arrest in human K562 cells assessed as accumulation of cells at G1 phase at 3 nM incubated overnight by PI staining based flow cytometry analysis (reference value: 78.45%); format: functional
K562 [2] = assay: Induction of ROS generation in human K562 cells incubated for 24 hrs by DCFH-DA staining based assay; format: functional, cell-based; details: dose 1.5-6 nM
Tubulin (Homo sapiens) [3] = molecular target: T1, Tubulin (Homo sapiens) (UniProt P68371+Q9H4B7+P0DPH7+P68366+Q13509+Q71U36+P04350+Q3ZCM7+P07437+P68363+Q9BQE3+Q6PEY2+Q13885+Q9BVA1+Q9BUF5); assay: Inhibition of [3H]colchicine binding to tubulin (unknown origin) at 1 uM incubated for 2 hrs by scintillation counter analysis relative to control; format: protein-complex assay
[4] = Toxicity in mouse assessed as effect on liver at 20 mg/kg by H and E staining based microscopic analysis; format: organism-based; details: in vivo
A549/TR = assay: Antiproliferative activity against human A549/Taxol cells assessed as inhibition of cell growth measured after 72 hrs by MTT assay; format: functional, cell-based
H22 [5] = assay: Antitumor activity against mouse H22 cells allografted in mouse model assessed as inhibition of tumor weight administered as iv dose for once daily for 3 weeks; format: functional, organism-based; details: dose 10-20 mg/kg
K562 [6] = assay: Induction of cell cycle arrest in human K562 cells assessed as accumulation of cells at G2/M phase at 3 nM incubated overnight by PI staining based flow cytometry analysis (reference value: 5.57%); format: functional
H22 [7] = assay: Antitumor activity against mouse H22 cells allografted in mouse model assessed as tumor growth inhibition at 20 mg/kg,iv administered once daily for 3 weeks relative to control; format: functional; details: H22, 504 h, read-out: TGI
K562 [8] = assay: Induction of cell cycle arrest in human K562 cells assessed as accumulation of cells at S phase at 3 nM incubated overnight by PI staining based flow cytometry analysis (reference value: 15.98%); format: functional
K562 [9] = assay: Antiproliferative activity against human K562 cells assessed as inhibition of cell growth measured after 72 hrs by MTT assay; format: functional, cell-based; details: K562, 72 h
[10] = Antiproliferative activity against human HFL1 cells assessed as inhibition of cell growth measured after 72 hrs by MTT assay; format: toxicity, cell-based
K562 [11] = assay: Induction of cell cycle arrest in human K562 cells assessed as accumulation of cells at S phase at 6 nM incubated overnight by PI staining based flow cytometry analysis (reference value: 15.98%); format: functional
K562 [12] = assay: Induction of cell cycle arrest in human K562 cells assessed as accumulation of cells at G2/M phase at 6 nM incubated overnight by PI staining based flow cytometry analysis (reference value: 5.57%); format: functional
A549 [13] = assay: Antiproliferative activity against human A549 cells assessed as inhibition of cell growth at 1 uM measured after 72 hrs by MTT assay relative to control; format: functional
H22 [14] = assay: Antitumor activity against mouse H22 cells allografted in mouse model assessed as decrease in Ki67 positive cells at 20 mg/kg by immunohistochemistry analysis; format: functional, organism-based
[15] = Resistance index, ratio of IC50 for antiproliferative activity against human A549/Taxol cells to IC50 for antiproliferative activity against human A549 cells; format: functional
MDA-MB-231 [16] = assay: Inhibition of cell migration in human MDA-MB-231 cells measured after 48 hrs by crystal violet staining microscopy based transwell migration assay; format: functional; details: dose 1.5-6 nM
[17] = Toxicity in mouse assessed as effect on heart at 20 mg/kg by H and E staining based microscopic analysis; format: organism-based; details: in vivo
K562 [18] = assay: Induction of apoptosis in human K562 cells at 6 nM measured after 48 hrs by Annexin V-FITC/7-AAD staining based flow cytometric analysis relative to control; format: functional
[19] = Aqueous solubility of the compound by HPLC analysis; format: physicochemical; details: aqueous (not further specified)
K562 [20] = assay: Induction of apoptosis in human K562 cells assessed as increase in bad level at upto 6 nM measured after 48 hrs by Western blot analysis; format: functional, cell-based
A549 [21] = assay: Antiproliferative activity against human A549 cells assessed as inhibition of cell growth at 0.01 uM measured after 72 hrs by MTT assay relative to control; format: functional
K562 [22] = assay: Induction of cell cycle arrest in human K562 cells assessed as accumulation of cells at G1 phase at 6 nM incubated overnight by PI staining based flow cytometry analysis (reference value: 78.45%); format: functional
[23] = Toxicity in mouse assessed as effect on lung at 20 mg/kg by H and E staining based microscopic analysis; format: organism-based; details: in vivo
[24] = Toxicity in mouse assessed as effect on kidney at 20 mg/kg by H and E staining based microscopic analysis; format: organism-based; details: in vivo
A549 [25] = assay: Antiproliferative activity against human A549 cells assessed as inhibition of cell growth measured after 72 hrs by MTT assay; format: functional, cell-based; details: A549, 72 h
H22 [26] = assay: Antitumor activity against mouse H22 cells allografted in mouse model assessed as inhibition of tumor volume administered as iv dose for once daily for 3 weeks; format: functional, organism-based; details: dose 10-20 mg/kg
K562 [27] = assay: Induction of apoptosis in human K562 cells assessed as increase in bax level at upto 6 nM measured after 48 hrs by Western blot analysis; format: functional, cell-based
HepG2 = assay: Antiproliferative activity against human HepG2 cells assessed as inhibition of cell growth measured after 72 hrs by MTT assay; format: functional, cell-based; details: HepG2, 72 h
Tubulin (Homo sapiens) [28] = molecular target: T1, Tubulin (Homo sapiens); assay: Inhibition of [3H]colchicine binding to tubulin (unknown origin) at 5 uM incubated for 2 hrs by scintillation counter analysis relative to control; format: protein-complex assay
Cell membrane = assay: Induction of mitochondrial membrane depolarization in human K562 cells assessed as decrease in red fluorescence intensity at incubated for 48 hrs by JC-1 staining based flow cytometry; format: cell membranes; details: dose 1.5-6 nM
K562 [29] = assay: Induction of apoptosis in human K562 cells assessed as downregulation of bcl-xl level at upto 6 nM measured after 48 hrs by Western blot analysis; format: functional, cell-based
K562 [30] = assay: Induction of apoptosis in human K562 cells assessed as downregulation of bcl-2 level at upto 6 nM measured after 48 hrs by Western blot analysis; format: functional, cell-based
K562 [31] = assay: Induction of cell cycle arrest in human K562 cells assessed as accumulation of cells at S phase at 1.5 nM incubated overnight by PI staining based flow cytometry analysis (reference value: 15.98%); format: functional
MDA-MB-231 [32] = assay: Inhibition of cell invasion in human MDA-MB-231 cells at 1.5 to 6 nM measured after 48 hrs by crystal violet staining microscopy based transwell assay; format: functional; details: dose 1.5-6 nM
[33] = Metabolic stability in mouse liver microsomes assessed as half life at 100 uM measure upto 60 mins in presence of NADPH by LC-MS/MS analysis; format: ADME, Microsome
[34] = Metabolic stability in mouse liver microsomes assessed as intrinsic clearance at 100 uM measure upto 60 mins in presence of NADPH by LC-MS/MS analysis; format: ADME, Microsome; details: 1 h
K562 [35] = assay: Induction of cell cycle arrest in human K562 cells assessed as accumulation of cells at G1 phase at 1.5 nM incubated overnight by PI staining based flow cytometry analysis (reference value: 78.45%); format: functional
A549 [36] = assay: Antiproliferative activity against human A549 cells assessed as inhibition of cell growth at 0.1 uM measured after 72 hrs by MTT assay relative to control; format: functional

CCn1ccc2cc(N3CCC(=O)c4c3cc(OC)c(OC)c4OC)ccc21
Activity (K562 [1]): 59.63% | Activity (K562 [2]): Dose-Dependent Effect | inhibition (Tubulin (Homo sapiens) [3]): 63.9% | Activity [4]: Non-Toxic | IC50 (A549/TR): 43 nM | Activity (H22 [5]): Dose-Dependent Effect | Activity (K562 [6]): 12.33% | inhibition in vivo at 20 mg/kg (H22 [7]): 63.3% | Activity (K562 [8]): 28.04% | IC50 (K562 [9]): 3 nM | IC50 at 72 h [10]: 62 nM | Activity (K562 [11]): 30.18% | Activity (K562 [12]): 22% | inhibition at 1 µM (A549 [13]): 79% | Activity (H22 [14]): Active | Ratio IC50 [15]: 5.38 | inhibition (MDA-MB-231 [16]): Dose-Dependent Effect | Activity [17]: Non-Toxic | Activity (K562 [18]): 45.82% | solubility [19]: 6.68 µg/mL (≈ 17.6 µM) | Activity (K562 [20]): Active | inhibition at 0.01 µM (A549 [21]): 73.6% | Activity (K562 [22]): 47.52% | Activity [23]: Non-Toxic | Activity [24]: Non-Toxic | IC50 (A549 [25]): 8 nM | Activity (H22 [26]): Dose-Dependent Effect | Activity (K562 [27]): Active | IC50 (HepG2): 9 nM | inhibition (Tubulin (Homo sapiens) [28]): 75.9% | Activity (Cell membrane): Dose-Dependent Effect | Activity (K562 [29]): Active | Activity (K562 [30]): Active | Activity (K562 [31]): 22.58% | inhibition (MDA-MB-231 [32]): Active | half-life at 100 µM [33]: 10.7 min | CLH [34]: 129 µL/min/mg | Activity (K562 [35]): 66.8% | inhibition at 0.1 µM (A549 [36]): 78.3%
